# What was measured:
# Assay type in all cases: in vivo, BALB/c nude mice
# [1] = tested on: Pancreatic cancer cell BXPC-3; test: Tumor growth inhibition in BXPC-3 CDX model (nude mouse xenograft); details: BIW × 3 weeks
# From the text: (§1) Method for testing tumor inhibitory activity of ADC in nude mouse xenograft model (cell-derived xenograft, CDX): Pancreatic cancer cell BXPC-3, lung adenocarcinoma cell NCI-H1975, triple-negative breast cancer cell MDA-MB-231, and esophageal squamous carcinoma cell KYSE-150 were subjected to monolayer culturing in vitro. When cell saturation reached 80%-90%, the cells were digested with trypsin-EDTA and centrifuged. The supernatant was discarded. The cells were re-suspended in PBS. The cell suspension was adjusted to an appropriate concentration. BXPC-3, NCI-H1975, MDA-MB-231, and KYSE-150 cells (2-10×10^6 cells/0.1 mL) were separately subcutaneously inoculated into BALB/c nude mice. The animals and the growth of transplanted tumors were observed regularly. When the tumor volume reached approximately 100-200 mm^3, the mice were randomly divided into groups based on tumor volume and body weight, with 6 animals per group. The animals were administered regularly via intravenous injection. Twice a week, the longer diameter a (mm) and shorter diameter b (mm) of the tumor were measured with a vernier caliper and the body weight of the mice was measured. The tumor volume (V) was calculated according to the following formula: V=½×a×b^2 (mm^3), in which a and b represented the length and width of the tumor, respectively. A growth curve was plotted. Finally, the tumor was excised and weighed. […]
# [2] = tested on: lung adenocarcinoma cell NCI-H1975; test: Tumor growth inhibition in NCI-H1975 model (nude mouse xenograft); details: NCI-H1975, 10 mg/kg iv, BIW × 2 weeks
# From the text: as §1
# [3] = tested on: esophageal squamous carcinoma cell KYSE-150; test: Tumor growth inhibition in KYSE-150 CDX model (nude mouse xenograft); details: 10 mg/kg iv, BIW × 2 weeks
# From the text: as §1
# [4] = tested on: triple-negative breast cancer cell MDA-MB-231; test: Tumor growth inhibition in MDA-MB-231 CDX model (nude mouse xenograft); details: 10 mg/kg iv, BIW × 3 doses
# From the text: as §1
compound,measurement,setting,value
CC[C@@]1(O)C(=O)OCc2c1cc1n(c2=O)Cc2c-1nc1cc(F)c(C)c3c1c2[C@@H](NC(=O)CONC)CC3 [Compound 10],Tumor inhibition on D33,[1]; 0.12 mg/kg iv,16.75%
Nc1ccn([C@@H]2O[C@H](CO)[C@@H](O)C2(F)F)c(=O)n1 [Gemcitabine],Tumor inhibition on D33,[1]; 90 mg/kg iv,41.52%
CC(=O)O[C@H]1C(=O)[C@@]2(C)[C@H]([C@H](OC(=O)c3ccccc3)[C@]3(O)C[C@H](OC(=O)[C@H](O)[C@@H](NC(=O)c4ccccc4)c4ccccc4)C(C)=C1C3(C)C)[C@]1(OC(C)=O)CO[C@@H]1C[C@@H]2O [Paclitaxel],Tumor inhibition on D21,[2],94.5%
same,Tumor inhibition on D21,[3],78.00%
same,Tumor inhibition on D25,[4],79.96%
